Laboratory results from patent publication US6362369B1, “Phthalic acid diamide derivatives fluorine-containing aniline compounds as starting material, agricultural and horticultural insecticides, and a method for application of the insecticides” (Nihon Nohyaku Co., Ltd., priority 1997, dated 2002).

Columns and labels:
[1] = system: diamondback moth (Plutella xylostella); test: Insecticidal effect on diamondback moth (Test Example 1); assay type: in vivo; conditions: for Insecticidal effect, Test Example 1 / Insecticidal effect (Test Example 1), judged from mortality: diamondback moth; for Insecticidal effect (Test Example 1), judged from mortality: judged by the criterion of Test Example 1; for Insecticidal effect on diamondback moth (Test Example 1), judged grade: mortality judged according to the criterion shown in Test Example 1
Summary of the method: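 Triplicate groups of 10 insects: eggs laid on Chinese cabbage seedling by adults, seedling immersed then air-dried, kept at 25° C. Day-6 hatch counts gave mortality, rated by criterion.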

[2] = system: rice leafroller (Cnaphalocrocis medinalis); test: Insecticidal effect on rice leafroller (Test Example 3); assay type: in vivo; conditions: 500 ppm, 25° C., humidity 70%; for Insecticidal effect, Test Example 3: rice lamina immersed; for Insecticidal effect, Test Example 3 / Insecticidal effect on rice leafroller (Test Example 3), judged grade: four days after inoculation; for Insecticidal effect (Test Example 3), judged from mortality / Insecticidal effect on rice leafroller (Test Example 3), judged grade: rice lamina dip; for Insecticidal effect (Test Example 3), judged from mortality: 4 days after inoculation; for Insecticidal effect on rice leafroller (Test Example 3), judged grade: third-instar larvae
Summary of the method: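 Insecticidal effect is judged by a predefined criterion from dead/alive counts four days after infesting air-dried lamina with third-instar larvae, kept on moistened filter paper at 25° C, 70% humidity.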

[3] = mortality judged by criterion of Test Example 1
[4] = rice leafroller third-instar larvae
[5] = judged by the mortality criterion of Test Example 1
[6] = third-instar larvae of rice leafroller

Row | Compound | Insecticidal effect, Test Example 1 [1, 3] | Insecticidal effect, Test Example 3 [2, 4] | Insecticidal effect, Test Example 1 [1, 5] | Insecticidal effect, Test Example 3 [2, 6] | further results
1 | CCCNC(=O)c1cccc(I)c1C(=O)Nc1ccc(C(F)(C(F)(F)F)C(F)(F)F)cc1C [compound 1076] | A (100) | A (100) |  |  | 
2 | CCCNC(=O)c1c(Cl)cccc1C(=O)Nc1ccc(OC(F)F)cc1C [compound 15] |  |  | A (100) | A (100) | 
3 | Cc1cc(OC(F)(F)C(F)(F)c2ccccc2)ccc1NC(=O)c1cccc([N+](=O)[O-])c1C(=O)NC(C)C [compound 1089] | A (100) | A (100) |  |  | 
4 | CCCC(C)NC(=O)c1cccc(I)c1C(=O)Nc1ccc(C(F)(F)C(F)(F)F)cc1C (stereo not shown) [compound 1010] | A (100) | A (100) |  |  | 
5 | CCN(CC)C(=O)c1c(C(=O)Nc2ccc(OC(F)(F)F)cc2)cccc1[N+](=O)[O-] [compound 1136] | A (100) | A (100) |  |  | 
6 | C#CCNC(=O)c1c(I)cccc1C(=O)Nc1ccc(OC(F)F)cc1C [compound 1456] |  |  |  |  | Insecticidal effect (Test Example 1), judged from mortality [1]: A (100); Insecticidal effect (Test Example 3), judged from mortality [2, 6]: A (100)
7 | Cc1cc(Cl)ccc1NC(=O)c1c(Cl)ccc(Cl)c1C(=O)NC(C)C [compound 259] |  |  | A (100) | D (79-50) | 
8 | COc1cc(NC(=O)c2cccc(I)c2C(=O)NC(C)C)ccc1OC(F)F [compound 384] |  |  | A (100) | C (89-80) | 
9 | CC(C)NC(=O)c1c(C(=O)Nc2ccc(Cl)cc2C(F)(F)F)cccc1[N+](=O)[O-] [compound 679] |  |  |  |  | Insecticidal effect on diamondback moth (Test Example 1), judged grade [1]: A (100); Insecticidal effect on rice leafroller (Test Example 3), judged grade [2]: A (100)
10 | CC(C)NC(=O)c1cccc(I)c1C(=O)Nc1ccc(SCC(F)(F)F)cc1 [compound 420] |  |  | A (100) | D (79-50) | 
11 | CC(C)NC(=O)c1c(C(=O)Nc2cccc(OC(F)F)c2)cccc1[N+](=O)[O-] [compound 616] |  |  |  |  | Insecticidal effect on diamondback moth (Test Example 1), judged grade [1]: A (100); Insecticidal effect on rice leafroller (Test Example 3), judged grade [2]: D (79-50)
12 | CC(C)NC(=O)c1c(Cl)cccc1C(=O)Nc1cc2c(cc1Cl)OC(F)(F)C(F)(F)O2 [compound 1643] |  |  |  |  | Insecticidal effect (Test Example 1), judged from mortality [1]: A (100); Insecticidal effect (Test Example 3), judged from mortality [2, 6]: A (100)
13 | CC(C)NC(=O)c1c(F)cccc1C(=O)Nc1ccc(C(F)(F)C(F)(F)C(F)(F)C(F)(F)F)cc1 [compound 472] |  |  |  |  | Insecticidal effect on diamondback moth (Test Example 1), judged grade [1]: A (100); Insecticidal effect on rice leafroller (Test Example 3), judged grade [2]: B (99-90)
14 | CCC(C)(C)NC(=O)c1c(F)cccc1C(=O)Nc1ccc(OC(F)F)cc1C [compound 1155] | A (100) | A (100) |  |  | 
15 | Cc1cc(C(F)(F)C(F)(F)F)ccc1NC(=O)c1c(Cl)cccc1C(=O)NC(C)(C)CO [compound 1415] | A (100) | A (100) |  |  | 
16 | Cc1cc(N(C)C)ccc1NC(=O)c1cccc([N+](=O)[O-])c1C(=O)NC(C)C [compound 723] |  |  |  |  | Insecticidal effect on diamondback moth (Test Example 1), judged grade [1]: D (79-50); Insecticidal effect on rice leafroller (Test Example 3), judged grade [2]: D (79-50)

Row | Compound | Insecticidal effect, Test Example 1 [1, 3] | Insecticidal effect, Test Example 3 [2, 4] | Insecticidal effect, Test Example 1 [1, 5] | Insecticidal effect, Test Example 3 [2, 6] | further results
17 | Cc1cc(C(F)(F)C(F)(F)F)ccc1NC(=O)c1ccc(Br)c(Br)c1C(=O)NC(C)C [compound 1266] | A (100) | A (100) |  |  | 
18 | CC(C)NC(=O)c1c(C(=O)Nc2cc(Cl)ccc2Cl)cccc1[N+](=O)[O-] [compound 634] |  |  |  |  | Insecticidal effect on diamondback moth (Test Example 1), judged grade [1]: A (100); Insecticidal effect on rice leafroller (Test Example 3), judged grade [2]: D (79-50)
19 | Cc1cc(OC(F)(F)Br)ccc1NC(=O)c1c(Cl)cccc1C(=O)NC(C)C [compound 238] |  |  | A (100) | A (100) | 
20 | CC(C)NC(=O)c1c(Cl)cccc1C(=O)Nc1cccc(SC(F)(F)F)c1 [compound 99] |  |  | A (100) | A (100) | 
21 | CCc1ccc(Cl)c(CC)c1NC(=O)c1cccc(I)c1C(=O)NC(C)C [compound 925] |  |  |  |  | Insecticidal effect on diamondback moth (Test Example 1), judged grade [1]: A (100); Insecticidal effect on rice leafroller (Test Example 3), judged grade [2]: A (100)
22 | COc1cccc(C(=O)NC(C)C)c1C(=O)Nc1ccc(Br)cc1C [compound 771] |  |  |  |  | Insecticidal effect on diamondback moth (Test Example 1), judged grade [1]: A (100); Insecticidal effect on rice leafroller (Test Example 3), judged grade [2]: C (89-80)
23 | Cc1cccc(CNC(=O)c2c(Cl)cccc2C(=O)Nc2ccc(C(F)(F)C(F)(F)F)cc2C)c1 [compound 1339] | A (100) | A (100) |  |  | 
24 | COc1ccc(NC(=O)c2c(I)cccc2C(=O)NC(C)C)c(C)c1 [compound 441] |  |  | A (100) | B (99-90) | 
25 | CC(C)NC(=O)c1cccc(Br)c1C(=O)Nc1ccc(OC(F)(F)F)cc1 [Compound No. 302, 6-bromo-N^1-(4-trifluoromethoxyphenyl)-N^2-isopropylphthalic acid diamide] |  |  | A (100) | D (79-50) | 
26 | Cc1cc(F)ccc1NC(=O)c1c(I)cccc1C(=O)NC(C)C [compound 432] |  |  | A (100) | A (100) | 
27 | Cc1cc(OC(F)(F)C(F)(F)c2ccccc2)ccc1NC(=O)c1cccc(I)c1C(=O)NC(C)C [compound 1088] | A (100) | A (100) |  |  | 
28 | CCNC(=O)c1c(Cl)cccc1C(=O)Nc1ccc(C(F)(F)C(F)(F)F)cc1F [compound 1488] |  |  |  |  | Insecticidal effect (Test Example 1), judged from mortality [1]: A (100); Insecticidal effect (Test Example 3), judged from mortality [2, 6]: A (100)
29 | CC(C)NC(=O)c1cccc(I)c1C(=O)Nc1ccc(C(F)(F)F)cc1Cl [compound 433] |  |  | A (100) | A (100) | 
30 | Cc1cc(Br)ccc1NC(=O)c1c(Cl)cccc1C(=O)NC(C)C [compound 216] |  |  | A (100) | A (100) | 
31 | CCN(CC)C(=O)c1c(C(=O)Nc2ccc(OC(F)(F)C(F)F)cc2C)cccc1[N+](=O)[O-] [compound 1132] | A (100) | A (100) |  |  | 
32 | Cc1cc(OC(F)(F)F)ccc1NC(=O)c1cccc(I)c1C(=O)NC(C)c1ccccn1 (stereo not shown) [compound 1775] |  |  |  |  | Insecticidal effect (Test Example 1), judged from mortality [1]: A (100); Insecticidal effect (Test Example 3), judged from mortality [2, 6]: A (100)
